System: MM.1S human SLAMF7^+ multiple myeloma solid tumors
Test: MM.1S solid tumor model in NSG mice, anti-tumor efficacy
Assay type: in vivo
Settings: 2 million CAR^+ T cells per mouse, 5 mice per group (FIG. 17)
Experimental: First, MM.1S human SLAMF7^+ multiple myeloma cell line tumors were established in immunodeficient mice. In this model, the MM.1S cells formed a solid cutaneous mass. Measurable tumors were allowed to develop over 7 days, and then the mice were treated with a single intravenous infusion of MSGV1-IC9-Luc90-CD828Z-transduced human T cells. NSG mice (NOD.Cg-Prkdc^scid Il2rg^tm1Wjl/SzJ) from The Jackson Laboratory, Bar Harbor, Me., were used. Mice received intradermal injections of 4×10^6 MM.1S cells. The cells were suspended in a 1:1 mixture of MATRIGEL™ gelatinous protein mixture (BD Biosciences) and PBS (Phosphate-buffered saline) for injection. Tumors were allowed to grow for 7 days, and then each mouse received a single intravenous infusion of human T cells that were transduced with one of 3 CARs: IC9-Luc90-CD828Z (suicide gene+anti-SLAMF7 CAR), Luc90-CD828Z (anti-SLAMF7 CAR alone), or a negative-control anti-CD19 CAR Hu19-CD828Z. A 4th group was left untreated. All groups included 5 mice. After CAR T-cell infusion, the tumors were measured with calipers every 3 days. The longest length and the length perpendicular to the longest length and the tumor thickness were multiplied together to obtain the tumor volume in mm^3. When the longest length reached 15 mm, mice were sacrificed. Animal studies were approved by the National Cancer Institute Animal Care and Use Committee.
FIGS. 16A-16B show a dose-titration of IC9-Luc90-CD828Z-expressing T cells. In this experiment, immunocompromised NSG mice were injected intradermally with 4×10^6 MM.1S cells to form a solid mass. Mice were then treated with a single infusion of 0.5×10^6, 2×10^6, or 8×10^6, IC9-Luc90-CD828Z-expressing T cells. […] The tumor volume curves end when the first mouse of a group was sacrificed.
MM.'S tumors were established in NSG mice as described in Example 9. FIGS. 17A-17B show results in which mice bearing MM.1S tumors were treated with T cells expressing one of 3 different CARs: IC9-Luc90-CD828Z (suicide gene+anti-SLAMF7 CAR), Luc90-CD828Z (anti-SLAMF7 CAR alone), or a negative-control anti-CD19 CAR Hu19-CD828Z. A 4th group was left untreated in both experiments. All groups included 5 mice. The CARP T cell dose was 2 million CARP T cells per mouse. There were 5 mice in all groups.

Hu19-CD828Z: negative-control anti-CD19 CAR [reference compound]
anti-tumor activity: progressive tumors
